Consider two compounds from US5939403A, “Keratan sulfate oligosaccharide fraction and pharmaceutical containing the same” (Seikagaku Corporation, priority 1994, dated 1999).

Each structure is given as a SMILES string. Where a name gives a salt, the structure may show the parent alone.

For one experiment, the system named is MRL-lpr/lpr mice. The experiment is described as follows: Repeated intramuscular administration for 56 days in MRL mice (lymph node weight). In kind it is in vivo. Here is the method: The effect of the keratan sulfate oligosaccharide was examined on MRL mice which are autoimmune disease model mice.
The PBS solution of the purified keratan sulfate disaccharide (III) which was prepared in Example 1 described above at a dose of 2.5 mg/kg, 5 mg/kg, or 10 mg/kg weight (hereinafter referred to as the 2.5 mg/kg administered group, the 5 mg/kg administered group, and the 10 mg/kg administered group, respectively), and PBS as the control (hereinafter sometimes referred to as the control group) was intramuscularly injected, respectively, to the femoral region of MRL-lpr/lpr mice seven times a week for eight weeks. After that, the mice were subjected to anatomization, and the weight of mesenteric lymph nodes and submandibular lymph nodes were determined to obtain the average weight, respectively. The results concerning mesenteric lymph nodes and submandibular lymph nodes are shown in FIG. 15 and FIG. 16 with the standard errors, respectively. In each group, seven mice were used.

The test system of the next experiment is lymphocytes. Kind of experiment: Cell differentiation induction: lymphocyte surface antigen of lymph node. In kind it is in vivo, MRL-lpr/lpr mice. The following applies: 10 mg/kg i.m., eight weeks; vs control, 2.5 and 5 mg/kg. Here is the method:
The PBS solution of the purified keratan sulfate disaccharide (III) which was prepared in Example 1 described above at a dose of 2.5 mg/kg, 5 mg/kg, or 10 mg/kg weight (hereinafter referred to as the 2.5 mg/kg administered group, the 5 mg/kg administered group, and the 10 mg/kg administered group, respectively), and PBS as the control (hereinafter sometimes referred to as the control group) was intramuscularly injected, respectively, to the femoral region of MRL-lpr/lpr mice seven times a week for eight weeks. After that, the mice were subjected to anatomization, and the lymph nodes were minced on a cell strainer (Falcon 2350) to prepare the lymphocyte. The lymphocyte prepared of each group was subjected to the double immune staining with the anti-CD3 antibody (Seikagaku Corporation) and the anti-CD4 antibody (Pharminjen), that with the anti-CD3 antibody and the anti-CD8a antibody (Pharminjen), and that with the anti-CD3 antibody and the anti-B220 antibody (Pharminjen), respectively. The CD3, CD4, and CDBa are cell surface antigens which are expressed on T cells, and the B220 is that expressed on B cells. And it is known that no expression of these cell surface antigens is observed on null lymphocytes.
The proportion (%) of the CD3 and CD4 positive cells (hereinafter sometimes referred to as "the CD3+CD4+cells"; mainly helper T cells) to all the lymphocytes and the standard errors are shown in FIG. 19, that of the CD3 and CD8a positive cells (hereinafter sometimes referred to as "the CD3+CD8a+cells"; mainly suppressor T cells and cytotoxic T cells) and the standard errors are shown in FIG. 20, and that of the CD3 and B220 positive cells (hereinafter sometimes referred to as "the CD3+B220+cells";abnormal T cells having the surface antigens of B cells) and the standard errors are shown in FIG. 21. In the figures, * represents that it has the significant difference with p<0.05 (wherein "p" means a level of significance by the Ryan multiple comparative test). In each group, seven mice were used.

Another experiment deals with carrageenin pleurisy. Kind of experiment: Carrageenin pleurisy model. Type of experiment: in vivo, Female S.D. rats. The following applies: six hours. Here is the method:
The effect of the keratan sulfate oligosaccharide was examined with the carrageenin pleurisy model of rats which is generally used for evaluation of anti-inflammatory agents.
Female S.D. rats (n=37) of about 150 to 170 g weight were used for the test. The λ-carrageenin (Sigma) was dissolved in saline to a concentration of 2%, and the solution was filtered with a 0.8 μm filter. The carrageenin solution obtained was intrathoracically administered at 100 μl/animal to prepare the pleurisy model.
To the pleurisy model of rats (n=19) described above, the keratan sulfate tetrasaccharide (I) dissolved in PBS was subcutaneously (s.c.) administered in 20 mg/kg or 10 mg/kg dose. And as the positive control, steroid (dexamethasone acetate; Banyu Pharmaceutical) was subcutaneously administered to the eight rats described above in 150 μg/kg which was the clinical dose. As the negative control, PBS was subcutaneously administered to the 10 rats. Each administration was carried out immediately after the administration of carrageenin.
Each rat was anatomized six hours after the administration of λ-carrageenin. The thoracic cavity of the rats was opened to collect the retained pleural fluid using a 2-ml syringe with probe. After that, inside of the thoracic cavity was washed with 1 ml of saline, and the washing solution was recovered. The volume of the pleural fluid recovered with the syringe was determined, and the number of leukocyte (cell number) in the pleural fluid was determined by an automatic cytometer. The results are be shown in FIG. 8 and FIG. 9, respectively. In the figures, * and ** represent that they have the significant difference with p<0.05 and p<0.01, respectively (wherein "p" means a level of significance by the Duncan test).

The subject of a further experiment is papain-induced arthritis. Kind of experiment: Papain-induced bilateral arthritis model, intra-articular administration (volume of synovial fluid). Type of experiment: in vivo, Japanese white rabbits (female). The following applies: for Volume of Synovial Fluid: 7 days, n = 8, p < 0.05, control 729, normal 437. Here is the method: The anti-inflammatory effect of the keratan sulfate oligosaccharide with rabbits of the papain-induced arthritis model was examined using the volume of synovial fluid as an indication.
Into the articular cavity of both knee joint of Japanese white rabbits (female) of 3 kg weight, 150 μl of the saline solution of papain (1%) was injected to prepare the arthritis model. One day after injecting papain, 150 μl of the PBS solution of the purified keratan sulfate tetrasaccharide (I) (1% solution; 1.5 mg/joint) which was prepared in Example 1 was injected into the articular cavity of the left joint (hereinafter referred to as "the keratan sulfate tetrasaccharide (I) administered foot"), and 150 μl of PBS was injected into that of the right joint (hereinafter referred to as "the keratan sulfate tetrasaccharide (I) unadministered foot"). Hereinafter the rabbits subjected to administration of the keratan sulfate tetrasaccharide (I) are referred to as "the administered group". And the rabbits subjected to the papain injection only (hereinafter referred to as the control group) and the normal rabbits not subjected to the papain injection (hereinafter referred to as the normal group) were also examined in the same manner hereinafter.
Seven days after the injection, the blood was drawn from the auricular artery, and plasma containing heparin was separated. After drawing the blood, the rabbits were anatomized and the both knee joint were separated. The articular cavity was washed with 2 ml of saline three times to recover the synovial fluid. The calcium concentrations in the plasma and the recovered synovial fluid were determined, and the volume of synovial fluid was calculated from the following formula.
Volume of Synovial Fluid (ul/articulation)=Amount of Calcium in Recovered
Synovial Fluid (μg/articulation)/Concentration of Calcium in Plasma
In the table, "n" represents the number of rabbits in each group used in the experiment.

On to `CC(=O)N[C@H]1C(O)O[C@H](COS(=O)(=O)O)[C@@H](O[C@@H]2O[C@H](COS(=O)(=O)O)[C@H](O)[C@H](O)[C@H]2O)[C@@H]1O` (stereo partly drawn) [keratan sulfate disaccharide (III), Gal(6S)β1-4GlcNAc(6S)], for which the “weight increase in mesenteric lymph nodes (FIG. 15)” value in the experiment on MRL-lpr/lpr mice (2.5 mg/kg i.m.) is given as “a suppressive effect on the weight increase in mesenteric lymph nodes was observed”. Also, the “weight increase in mesenteric lymph nodes and submandibular lymph nodes (FIG. 15, FIG. 16)” value in the experiment with MRL-lpr/lpr mice (10 mg/kg i.m.) is “that in mesenteric lymph nodes and submandibular lymph nodes were observed”. Also, in the experiment on lymphocytes, the “proportion of CD3+B220+ cells (FIG. 21)” value is “decreased”, the “proportion of CD3+CD4+ cells (FIG. 19)” value is recorded as “increased significantly” and the “proportion of CD3+CD8a+ cells (FIG. 20)” value is “increased”.
`CC(=O)N[C@H]1[C@H](O[C@H]2[C@@H](O)[C@@H](COS(=O)(=O)O)O[C@@H](O[C@H]3[C@H](O)[C@@H](NC(C)=O)C(O)O[C@@H]3COS(=O)(=O)O)[C@@H]2O)O[C@H](COS(=O)(=O)O)[C@@H](O[C@@H]2O[C@H](COS(=O)(=O)O)[C@H](O)[C@H](O)[C@H]2O)[C@@H]1O` (stereo partly drawn) [keratan sulfate tetrasaccharide (I), Gal(6S)β1-4GlcNAc(6S)β1-3Gal(6S)β1-4GlcNAc(6S)]: in the experiment with carrageenin pleurisy (10 mg/kg and 20 mg/kg s.c.), the “number of leukocyte in pleural fluid (FIG. 9)” value is “significantly less than that in the negative control group, and dose-dependent decrease was observed”. Further, in the experiment with carrageenin pleurisy (10 mg/kg s.c.), the “volume of pleural fluid (FIG. 8)” value is on record as “significantly less than that in the negative control group”. Further, the “volume of pleural fluid (FIG. 8), dose comparison” value in the experiment with carrageenin pleurisy (10 mg/kg vs 20 mg/kg s.c.) is given as “almost same as that in the keratan sulfate tetrasaccharide (I) 20 mg/kg administered group”. In addition, the “Volume of Synovial Fluid” value in the experiment with papain-induced arthritis (Administered Foot, 1.5 mg/joint intra-articular, SD 147) worked out at 530 µL; in the experiment with papain-induced arthritis (Unadministered Foot, 1.5 mg in other joint, SD 130) it was 537 µL. Also, the “volume of synovial fluid (result in words)” value in the experiment on papain-induced arthritis (intra-articular, bilateral model) is “significantly less than that in the control group”.
